Here are results for 21 molecules from patent US10653688B2, “6-(6-membered heteroaryl and aryl)isoquinolin-3-yl carboxamides and preparation and use thereof” (Samumed, LLC, priority 2017, dated 2020).

For test [1], the system named is SW480 colon carcinoma cells. The experiment in a line: Cell viability assay (CellTiter-Glo). Format: cell-based, human. As to conditions: Homo sapiens; for EC50: 96 h, four days, CellTiter-Glo; for inhibition at 10 µM: read-out: percent inhibition at 10 μM (given for EC50 >10 μM), 10 μM. For orientation: In ATP-based viability assays light output follows the ATP content of the culture.

Test [2] deals with Cyclin D1 phosphorylation at Threonine 286 (pCcnD1) over total Cyclin D1 in SH-SY5Y cells. The experiment in a line: phosphoCcnD1 to total CcnD1 ratio (PTT) cell-based assay, western blot. As to conditions: Homo sapiens, 48 hours. The protocol:
Representative compounds were screened using the cell-based assay procedure for the ratio of signal of Cyclin D1 phosphorylation at Threonine 286 (pCcnD1) over the signal of total Cyclin D1 (CcnD1) (abbreviated: phosphoCcnD1 to total CcnD1 ratio, or PTT) as described below.
SH-SY5Y cells (human neuroblastoma, Sigma, Saint-Louis, Mo.) were cultured in 1:1 DMEM/F-12 medium supplemented with 15% FBS, 1% non-essential amino acid, and 1% penicillin/streptomycin.
SH-SY5Y cells were seeded at 1.0×10^5 cells in 1 mL per well in a 24-well plate. After cell adherence was confirmed, DMSO-resuspended Samumed compounds were dispensed to eight wells as a serial dilution from 10 μM to 4.6 nM final concentration in medium, or at 1.1 μM to 4.6 nM with particularly potent compounds. Cells were exposed to Samumed compounds for 48 hours in a 37° C. incubator.
Wells of compound-treated cells were visually checked for cell death before being washed with 500 μL per well of 1×DPBS supplemented with phosphatase inhibitor diluted to 1×. Cells were then lysed with 90 μL 1×RIPA buffer supplemented with phosphatase and protease inhibitors (each diluted to a final 1×). After scraping, 60 μL of cell lysate from each sample was used to dilute 4×LDS (ThermoFisher, NP0007) and 20×XT reducing agent (Bio-Rad, 1610792), each diluted to 1× final. All samples were then denatured via boiling at 95° C. Denatured cell sample lysates were directly tested for pCcnD1 and total CcnD1 signal by Western blot techniques and analysis. Specifically, denatured lysates were directly transferred to NuPAGE™ 4-12% Bis-Tris Midi Protein Gels, 26-well gels (ThermoFisher, WG1403BOX). Gels were transferred to […] nitrocellulose membranes via iBlot™ Transfer Stack, nitrocellulose, regular size (ThermoFisher, IB301031). Membranes were blocked with 1×TBS, 5% milk (Bio-Rad, 1706404XTU) before being probed for overnight with either anti-pCcnD1 primary antibody (Cell Signaling Technology, 2978S) or anti-total CcnD1 primary antibody (Cell Signaling Technology, 3300S) diluted 1:500 in 1×TBS-0.05% Tween-20, 3% milk. After overnight incubation in primary antibodies, membranes were washed profusely with 1×TBS-0.05% Tween-20 and probed for 1 hour with secondary anti-rabbit/HRP conjugate (Cell Signaling Technology, 7074S) diluted 1:1000 in 1×TBS-0.05% Tween-20, 3% milk. After incubation in secondary antibody, membranes were washed with 1×TBS-0.05% Tween-20.
Probed and washed membranes were developed for pCcnD1 or total CcnD1 signal with SuperSignal™ West Femto Maximum Sensitivity Substrate (ThermoFisher, 34096) using the ChemoDoc-It^2 (UVP) and related GelDocIt imaging software. Blots were then stripped, blocked, stained with anti-β-actin/HRP conjugate antibody (Cell Signaling Technology, 5125S), developed, and imaged for housekeeping β-actin protein control as previously described. Densitometry was measured with ImageJ (NIH) and signal was used to plot, draw the curves fitting, and determine the EC50 values in GraphPad Prism for tested Samumed compounds.
Background: In western blotting, separated proteins are transferred to a membrane and probed.

Test [3] relates to secreted cytokines TNFα, IL-6 and KC-GRO in BV-2 cells (mouse microglial cells). The experiment in a line: Secreted cytokines in lipopolysaccharide-stimulated mouse glial cell line. The class given is cell-based. As to conditions: LPS 250 ng/mL 5 hours, table does not say which cytokine. The protocol: Representative compounds were screened using the cell-based assay procedure for secreted cytokines in a Lipopolysaccharide-stimulated mouse glial cell line described below.
BV-2 cells (mouse microglial cells) were cultured in 1:1 DMEM medium supplemented with 10% FBS, and 1% penicillin/streptomycin.
BV-2 cells are plated at 35,000 cells/well in a volume of 100 μl for at least 4 hours before compounds are added. DMSO-resuspended compounds were first dispensed in a 96-well plate and serial diluted from 10 μM to 4.6 nM final concentration in medium. Compounds were added to cells overnight. 250 ng/mL of lipopolysaccharide (Escherichia coli O111:B4, SIGMA) was added for 5 hours. Supernatant is removed and saved for further cytokine detection. The original plates with seeded cells were tested for cytotoxicity by measure of adenosine triphosphate (ATP) release by adding CellTiter-Glo® diluted 1:4 in distilled water (G7573, Promega) and transferring lysed cells to a completely black 96-well plate to be read with the Cytation3. Supernatant was then diluted 1:2 with a diluent from V-PLEX cytokine Kit and directly tested for the secreted cytokines TNFα, IL-6 and KC-GRO using electrochemiluminescence (Meso Scale Discovery). The standard curve for each cytokine was used to convert the electrochemiluminescent signal into pg of protein per mL. The signal was used to plot, draw the curve fitting, and determine each compounds EC50 in Prism (GraphPad).

Where only a bound is given, the exact number is not on record here.

One may read the EC50 as the concentration giving half of the maximal effect. As usually defined, the inhibition is how much of the control response was suppressed.

`O=C(Nc1cc2cc(-c3cccnc3)ccc2cn1)C1CC1` [Compound 6, N-(6-(Pyridin-3-yl)isoquinolin-3-yl)cyclopropanecarboxamide]: the results for the EC50 in test [1], in test [2] and in test [3] were 1600 nM, 276 nM and 33 nM, respectively.
`O=C(CN1CCCC1)Nc1cc2cc(-c3cccnc3)ccc2cn1` [Compound 7, N-(6-(Pyridin-3-yl)isoquinolin-3-yl)-2-(pyrrolidin-1-yl)acetamide]: the half-maximal effective concentration (EC50) is 3530 nM in test [1] and 6 nM in test [3].
As to `CN1CCC(C(=O)Nc2cc3cc(-c4cccnc4)ccc3cn2)CC1` [Compound 8, 1-Methyl-N-(6-(pyridin-3-yl)isoquinolin-3-yl)piperidine-4-carboxamide], the EC50 was determined as 3140 nM in test [1], 36 nM in test [2] and 36 nM in test [3].
Take `O=C(Nc1cc2cc(-c3cccnc3)ccc2cn1)C12CCN(CC1)CC2` [Compound 9, N-(6-(Pyridin-3-yl)isoquinolin-3-yl)quinuclidine-4-carboxamide]: in test [1], the EC50 is more than 10000 nM and the inhibition at 10 µM worked out at 26%. In addition, in test [3], the midpoint of the response, the EC50, lay at 745 nM.
For the molecule `O=C(CN1CCOCC1)Nc1cc2cc(-c3cccnc3)ccc2cn1` [Compound 10, 2-Morpholino-N-(6-(pyridin-3-yl)isoquinolin-3-yl)acetamide], in test [1], the concentration giving a half-maximal response (EC50) was more than 10000 nM and the inhibition at 10 µM came to 15.4%. This molecule also showed an EC50 in test [3] of 75 nM.
In the case of `CN1CCN(CC(=O)Nc2cc3cc(-c4cccnc4)ccc3cn2)CC1` [Compound 11, 2-(4-Methylpiperazin-1-yl)-N-(6-(pyridin-3-yl)isoquinolin-3-yl)acetamide], in test [1], the EC50 is more than 10000 nM and the inhibition at 10 µM amounted to 25.6%. The molecule also registered a concentration giving a half-maximal response (EC50) in test [3] of 327 nM.
For `CN1CCCN(CC(=O)Nc2cc3cc(-c4cccnc4)ccc3cn2)CC1` [Compound 12, 2-(4-Methyl-1,4-diazepan-1-yl)-N-(6-(pyridin-3-yl)isoquinolin-3-yl) acetamide], the figures for the concentration giving a half-maximal response (EC50) in test [1] and in test [3] were more than 10000 nM and 1000 nM, respectively. In test [1], the inhibition at 10 µM was 39.3%.
`CN1CCN(C[C@H]2CC[C@H](C(=O)Nc3cc4cc(-c5cncc(F)c5)ccc4cn3)CC2)CC1` [Compound 17, trans-N-(6-(5-Fluoropyridin-3-yl)isoquinolin-3-yl)-4-((4-methylpiperazin-1-yl)methyl)cyclohexane-1-carboxamide]: the EC50 in test [1] is 3470 nM; in test [3], 38 nM.
As for `CN1CCN(CC(=O)Nc2cc3cc(-c4cncc(F)c4)ccc3cn2)CC1` [Compound 20, N-(6-(5-Fluoropyridin-3-yl)isoquinolin-3-yl)-2-(4-methylpiperazin-1-yl) acetamide], the half-maximal effective concentration (EC50) is more than 10000 nM in test [1] and 355 nM in test [2]. Also, in test [1], the inhibition at 10 µM stood at 37.2%.
As to `CN1CCN(CC(=O)Nc2cc3cc(-c4ccc(F)nc4)ccc3cn2)CC1` [Compound 21, N-(6-(6-Fluoropyridin-3-yl)isoquinolin-3-yl)-2-(4-methylpiperazin-1-yl) acetamide], the EC50 is more than 10000 nM in test [1] and 671 nM in test [3]. Also, the inhibition at 10 µM in test [1] was 50%.
As to `CN1CCC(C(=O)Nc2cc3cc(-c4cncc(N5CCCC5)c4)ccc3cn2)CC1` [Compound 50, 1-Methyl-N-(6-(5-(pyrrolidin-1-yl)pyridin-3-yl)isoquinolin-3-yl)piperidine-4-carboxamide], the 50% effective concentration (EC50) is 2200 nM in test [1] and 109 nM in test [3].
Take `[2H]c1nc([2H])c(-c2ccc3cnc(NC(=O)CN4CCN(C)CC4)cc3c2)c([2H])c1[2H]` [Compound 61, 2-(4-Methylpiperazin-1-yl)-N-(6-(pyridin-3-yl-d4)isoquinolin-3-yl)acetamide]: the results for the EC50 in test [1] and in test [3] were more than 10000 nM and 86 nM, respectively. For the same molecule, the inhibition at 10 µM in test [1] came out at 21.6%.
With `[2H]c1nc([2H])c(-c2ccc3cnc(NC(=O)CN4CCOCC4)cc3c2)c([2H])c1[2H]` [Compound 62, 2-Morpholino-N-(6-(pyridin-3-yl-d4)isoquinolin-3-yl)acetamide], the results for the EC50 in test [1] and in test [3] were more than 10000 nM and 307 nM, respectively. In addition, in test [1], the inhibition at 10 µM was 16.6%.
As for `O=C(CN1CCOCC1)Nc1cc2cc(-c3ccnnc3)ccc2cn1` [Compound 67, 2-morpholino-N-(6-(pyridazin-4-yl)isoquinolin-3-yl)acetamide], in test [1], the EC50 was more than 10000 nM and the inhibition at 10 µM came to 19.2%. In addition, a half-maximal effect in test [3] (EC50) was put at 406 nM.
For the molecule `O=C(Nc1cc2cc(-c3cnccn3)ccc2cn1)[C@H]1C[C@H](N2CCOCC2)C1` [Compound 69, trans-3-Morpholino-N-(6-(pyrazin-2-yl)isoquinolin-3-yl)cyclobutane-1-carboxamide], in test [1], the EC50 was more than 10000 nM and the inhibition at 10 µM worked out at 19.5%. The same molecule displayed an EC50 in test [3] of 750 nM.
Take `O=C(Nc1cc2cc(-c3cnccn3)ccc2cn1)[C@H]1CC[C@H](N2CCOCC2)CC1` [Compound 71, trans-4-Morpholino-N-(6-(pyrazin-2-yl)isoquinolin-3-yl)cyclohexane-1-carboxamide]: in test [1], the half-maximal effective concentration (EC50) was more than 10000 nM and the inhibition at 10 µM amounted to 14.6%. A half-maximal response in test [3] (EC50) required 629 nM.
For `O=C(Nc1cc2cc(-c3cnccn3)ccc2cn1)[C@H]1CC[C@H](CN2CC(F)C2)CC1` [Compound 72, trans-4-((3-Fluoroazetidin-1-yl)methyl)-N-(6-(pyrazin-2-yl)isoquinolin-3-yl)cyclohexane-1-carboxamide], the half-maximal effective concentration (EC50) in test [1] is more than 10000 nM; in test [3], 1310 nM. The inhibition at 10 µM in test [1] was 35.6%.
In the same order, the values of `CN1CCN(C[C@H]2CC[C@H](C(=O)Nc3cc4cc(-c5cnccn5)ccc4cn3)CC2)CC1` [Compound 73, trans-4-((4-Methylpiperazin-1-yl)methyl)-N-(6-(pyrazin-2-yl)isoquinolin-3-yl)cyclohexane-1-carboxamide] are more than 10000 nM, 694 nM and 50.7%.
Consider `O=C(Nc1cc2cc(-c3cnccn3)ccc2cn1)C1CCN(CCF)CC1` [Compound 77, 1-(2-Fluoroethyl)-N-(6-(pyrazin-2-yl)isoquinolin-3-yl)piperidine-4-carboxamide], for which, in test [1], the EC50 was more than 10000 nM and the inhibition at 10 µM is 33.8%. The concentration for a half-maximal effect (EC50) in test [3] is 280 nM.
As to `O=C(Nc1cc2cc(-c3cnccn3)ccc2cn1)C1CCN(C2COC2)CC1` [Compound 78, 1-(Oxetan-3-yl)-N-(6-(pyrazin-2-yl)isoquinolin-3-yl)piperidine-4-carboxamide], in test [1], the EC50 was more than 10000 nM and the inhibition at 10 µM was determined as 27.7%. A half-maximal response in test [3] (EC50) required 131 nM.
Turning to `CC(C)Nc1cncc(-c2ccc3cnc(NC(=O)C4CCN(C)CC4)cc3c2)n1` [Compound 88, N-(6-(6-(Isopropylamino)pyrazin-2-yl)isoquinolin-3-yl)-1-methylpiperidine-4-carboxamide], the EC50 in test [1] was determined as 364 nM; in test [3], 1070 nM.
